Laboratory results from publication PMC10354055, “An optimized Nurr1 agonist provides disease-modifying effects in Parkinson’s disease models” (Nature Communications, 2023).
Values joined by “and” are separate entries in the source; they are usually repeats but may differ in a detail not shown here. Identical values can stand only once.

Experiments:
[1] = biological target: T1, Nurr1-LBD (Mus musculus, UniProt Q06219); experiment: Luciferase reporter assay, Nurr1-LBD, SK-N-BE(2)C cells; type: cell-based; details: for Maximum fold activity / EC50: Nurr1 activation; for Maximum fold activity: Supplementary Table 1; for Nurr1 activation (in words): Nurr1 reporter assays
T1 construct: transfected with pCMV-fNurr1, pGAL-Nurr1(LBD), pGAL-Nor1(LBD) or pGAL-Nur77(LBD) and reporter construct; expressed in transfected cells; host or cells: SK-N-BE(2)C (human neuroblastoma), N27-A (rat dopaminergic), MN9D (murine dopaminergic)
Text: Nurr1 transactivity was normalized to β-galactosidase activity.

[2] = biological target: T2, Nurr1-LBD (Homo sapiens, UniProt P43354); experiment: [3H]-CQ radioligand competition binding assay; details: Fig. 1h
Procedure: Saturation and competition assays were performed as previously described. For saturation assay, 0.2 µM of Nurr1-LBD and 125-10,000 nM of [^3H]-CQ were incubated in binding buffer (20 mM sodium acetate buffer (pH 5.2)) at 4 °C overnight. […] Assay mixtures were applied to GF/B filters (Brandel Inc.) to capture Nurr1-LBD bounded ligands. […] All graphs and IC50 values were generated using the non-linear regression program in GraphPad Prism version 8.0.2.

[3] = biological target: T2, Nurr1-LBD; experiment: TR-FRET competition assay with HCQFluo; type: binding; details: Fig. 1i
Procedure: TR-FRET assay was performed in PPI Terbium (Tb) detection buffer (PerkinElmer) and contained 0.2 µM of Nurr1-LBD, 0.5 µM of fluorescence-labeled hydroxy-CQ (HCQFluo; Proimaging) and serial concentrations of CQ, 4A7C-301 or RA (10^−4–10^6 nM). Rabbit anti-Nurr1 antibody (3 nM; prepared in our lab) and anti-rabbit IgG-Tb (1:400; Cisbio, 61PARTAF) were included in the assay solution as a donor complex. Assay solutions were loaded in a 384-well OptiPlate™ (PerkinElmer). After 2 h incubation in the dark at room temperature, the FRET signal was measured by excitation at 340 nm and emission at 520 nm for fluorescein and 495 nm for Tb using a VICTOR Nivo plate reader (PerkinElmer). Data were fit using the non-linear regression program in GraphPad Prism version 8.0.2.

[4] = Supplementary Table 1, values given in nM
[5] = Supplementary Table 1, values in µM

T1 sequence (Q06219 360-595 limits assumed): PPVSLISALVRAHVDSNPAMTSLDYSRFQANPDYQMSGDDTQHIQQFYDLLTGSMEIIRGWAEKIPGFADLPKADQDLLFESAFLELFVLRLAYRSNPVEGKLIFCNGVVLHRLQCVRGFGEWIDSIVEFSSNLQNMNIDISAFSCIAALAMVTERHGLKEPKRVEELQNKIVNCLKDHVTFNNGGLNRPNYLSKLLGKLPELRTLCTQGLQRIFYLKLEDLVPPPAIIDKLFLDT
T2 sequence (P43354 360-595 limits assumed, species assumed): as the sequence (Q06219 360-595 limits assumed) above

Row | Structure (SMILES) | Maximum fold activity [1] | EC50 [1, 4] | EC50 [1, 5] | other results
1 | CCN1CCN(c2nc(C)cc(NCCCNc3ccnc4cc(Cl)ccc34)n2)CC1 [4A7C-102] | 3.68 ± 0.04 fold and 3.68 fold | 143 nM |  | 
2 | CCN1CCN(c2cc(Cl)nc(NCCCNc3ccnc4cc(Cl)ccc34)n2)CC1 [4A7C-103] | 3.52 ± 0.19 fold | 634.5 ± 1.37 nM |  | Nurr1 activation (in words) [1]: diminished Nurr1 activity
3 | CCN1CCN(c2cc(Cl)nc(NCCNc3ccnc4cc(Cl)ccc34)n2)CC1 [4A7C-104] | 2.63 ± 0.58 fold | 316 ± 39.8 nM |  | Nurr1 activation (in words) [1]: better Nurr1 EC50 than 4A7C-103
4 | Cc1cc(N2CCN(CCNc3ccnc4cc(Cl)ccc34)CC2)nc(N2CCN(C)CC2)n1 [4A7C-201] | 4.78 ± 0.31 fold | 14.6 ± 1.38 nM |  | 
5 | Cc1cc(N2CCN(CCNc3ccnc4cc(Cl)ccc34)CC2)nc(N2CCCC2)n1 [4A7C-202] | 3.78 ± 0.25 fold | 1.28 ± 0.63 nM |  | 
6 | Clc1ccc2c(NCCN3CCN(c4ccnc(Cl)n4)CC3)ccnc2c1 [4A7C-203] | 4.22 ± 0.16 fold | 17 ± 4.97 nM |  | 
7 | Clc1ccc2c(NCCN3CCN(c4ccnc(N5CCSCC5)n4)CC3)ccnc2c1 [4A7C-204] | 4.46 ± 0.67 fold | 33.7 ± 0.34 nM |  | 
8 | CCN1CCN(c2nccc(N3CCN(CCNc4ccnc5cc(Cl)ccc45)CC3)n2)CC1 [4A7C-206] | 10.71 ± 0.44 fold |  | 10000 ± 760 nM | 
9 | CCN1CCN(c2cc(NCCNc3ccnc4cc(Cl)ccc34)nc(N3CCN(CC)CC3)n2)CC1 [4A7C-303] | 9.50 ± 0.22 fold | 8.5 ± 18.6 nM |  | Nurr1 activation (in words) [1]: good activity
10 | CCN1CCN(c2cc(N3CCCCC3)nc(NCCNc3ccnc4cc(Cl)ccc34)n2)CC1 [4A7C-304] | 2.16 ± 0.03 fold | 9.67 ± 7.87 nM |  | Nurr1 activation (in words) [1]: good Nurr1 activities
11 | CCN1CCN(c2cc(N3CCOCC3)nc(NCCNc3ccnc4cc(Cl)ccc34)n2)CC1 [4A7C-305] | 7.60 ± 0.08 fold |  | 1040 nM | Nurr1 activation (in words) [1]: good Nurr1 activities
12 | CCN1CCN(c2cc(N3CCN(C)CC3)nc(NCCNc3ccnc4cc(Cl)ccc34)n2)CC1 [4A7C-306] | 10.01 ± 0.06 fold | 25.5 ± 42.2 nM |  | Nurr1 activation (in words) [1]: good Nurr1 activities
13 | CCN1CCN(c2nc(NCCCCNc3ccnc4cc(Cl)ccc34)c3ccccc3n2)CC1 [4A7C-401] | 3.01 ± 0.13 fold | 2.62 ± 0.96 nM |  | 
14 | Cc1cc(N(CCNc2ccnc3cc(Cl)ccc23)Cc2ccc3c(c2)OCO3)nc(N2CCN(C)CC2)n1 [4A7C-501] | 10.51 ± 0.85 fold |  | 3390 ± 260 nM | 
15 | Cc1cc(N(CCNc2ccnc3cc(Cl)ccc23)Cc2cccs2)nc(Cl)n1 [4A7C-502] | 4.99 ± 0.86 fold | 0.51 ± 0.06 nM |  | 
16 | Cc1cc(N2CCOCC2)nc(N(CCNc2ccnc3cc(Cl)ccc23)Cc2cccs2)n1 [4A7C-503] | 2.25 ± 0.26 fold | 1.07 ± 0.12 nM |  | 

Row | Structure (SMILES) | Maximum fold activity [1] | EC50 [1, 4] | EC50 [1, 5] | other results
17 | Cc1cc(N2CCN(C)CC2)nc(N(CCNc2ccnc3cc(Cl)ccc23)Cc2cccs2)n1 [4A7C-504] | 4.07 ± 0.53 fold | 431 ± 15.1 nM |  | 
18 | Cc1cc(N(CCNc2ccnc3cc(Cl)ccc23)Cc2cccs2)nc(N2CCCCC2)n1 [4A7C-505] | 3.65 ± 0.31 fold | 2.14 ± 0.45 nM |  | 
19 | Cc1cc(N(CCNc2ccnc3cc(Cl)ccc23)Cc2cccs2)nc(N2CCOCC2)n1 [4A7C-506] | 4.49 ± 0.43 fold | 9.83 ± 0.29 nM |  | 
20 | CCN1CCN(c2cc(C)nc(N(CCNc3ccnc4cc(Cl)ccc34)Cc3cccs3)n2)CC1 [4A7C-507] | 3.24 ± 0.40 fold | 94.9 ± 1.66 nM |  | 
21 | Clc1ccc2c(NCCN3CCN(c4nccc(-n5ccnc5)n4)CC3)ccnc2c1 [4A7C-509] | 3.43 ± 0.42 fold | 113 ± 19.2 nM |  | 
22 | Cc1cc(NC2CCCC(Nc3ccnc4cc(Cl)ccc34)C2)nc(Cl)n1 (centres unmarked) [4A7C-601] | 3.81 ± 0.17 fold | 110 ± 27.1 nM |  | 
23 | Cc1cc(NC2CCCC(Nc3ccnc4cc(Cl)ccc34)C2)nc(N2CCN(c3ccccc3)CC2)n1 (centres unmarked) [4A7C-602] | 3.44 ± 0.28 fold |  | 3860 ± 260 nM | 
24 | Cc1cc(NC2CCCC(Nc3ccnc4cc(Cl)ccc34)C2)nc(N2CCCCC2)n1 (centres unmarked) [4A7C-603] | 6.84 ± 0.52 fold |  | 1220 ± 20 nM | 
25 | Cc1cc(N2CCCC2)nc(NC2CCCC(Nc3ccnc4cc(Cl)ccc34)C2)n1 (centres unmarked) [4A7C-604] | 4.24 ± 0.45 fold |  | 1030 ± 420 nM | 
26 | Cc1cc(NC2CCCC(Nc3ccnc4cc(Cl)ccc34)C2)nc(N2CCOCC2)n1 (centres unmarked) [4A7C-605] | 5.71 ± 0.81 fold |  | 1080 ± 370 nM | 
27 | Cc1cc(N2CCSCC2)nc(NC2CCCC(Nc3ccnc4cc(Cl)ccc34)C2)n1 (centres unmarked) [4A7C-606] | 5.72 ± 0.16 fold |  | 1540 ± 360 nM | 
28 | Cc1cc(N2CCN(C)CC2)nc(NC2CCCC(Nc3ccnc4cc(Cl)ccc34)C2)n1 (centres unmarked) [4A7C-607] | 4.50 ± 1.59 fold |  | 2230 ± 400 nM | 
29 | Cc1cc(N2CCN(c3ccccc3)CC2)nc(NC2CCCC(Nc3ccnc4cc(Cl)ccc34)C2)n1 (centres unmarked) [4A7C-608] | 6.31 ± 0.82 fold |  | 1140 ± 130 nM | 
30 | Cc1cc(N2CCCCC2)nc(NC2CCCC(Nc3ccnc4cc(Cl)ccc34)C2)n1 (centres unmarked) [4A7C-609] | 4.83 ± 0.51 fold |  | 1190 ± 610 nM | 
31 | CC1=C(/C=C/C(C)=C/C=C/C(C)=C/C(=O)O)C(C)(C)CCC1 [RA, Retinoic acid] |  |  |  | % of Specific binding ([2]; competitor conc. 0.0001 (µM)): 87.8740% and 90.3786% and 97.0000%; % of Specific binding ([2]; competitor conc. 0.001 (µM)): 101.4488% and 96.8455% and 90.6575%; % of Specific binding ([2]; competitor conc. 0.01 (µM)): 93.0895% and 89.2521% and 94.1409%; % of Specific binding ([2]; competitor conc. 0.1 (µM)): 82.0986% and 95.6235% and 83.0156%; % of Specific binding ([2]; competitor conc. 1 (µM)): 87.3597% and 82.6821% and 79.1883%; % of Specific binding ([2]; competitor conc. 10 (µM)): 63.0000% and 75.1862% and 67.5572%; % of Specific binding ([2]; competitor conc. 100 (µM)): 42.2356% and 49.1037% and 43.9315%; % of Specific binding ([2]; competitor conc. 1000 (µM)): 32.2111% and 35.0331% and 30.1369%; % of Specific binding ([2]; competitor conc. 10000 (µM)): 18.6132% and 23.0315% and 23.7161%; % of Specific binding ([2]; competitor conc. 100000 (µM)): 12.2908% and 10.3348% and 16.3962%; % of Specific binding ([2]; competitor conc. 1000000 (µM)): 8.1147% and 11.0894% and 7.4333%; Interaction [HTRF] ([3]; 0.05 µM): 2835.2000 and 2760.8790 and 2798.0390; Interaction [HTRF] ([3]; 0.1 µM): 2218.7830 and 2060.7720 and 2139.7770; Interaction [HTRF] ([3]; 0.5 µM): 1239.9030 and 1522.7770 and 1381.3400; Interaction [HTRF] ([3]; 1 µM): 1217.7040 and 1012.7510 and 1115.2270; Interaction [HTRF] ([3]; 5 µM): 750.0158 and 977.4576 and 863.7367; Interaction [HTRF] ([3]; 10 µM): 824.6545 and 715.3943 and 770.0244; Interaction [HTRF] ([3]; 50 µM): 734.0843 and 751.1574 and 742.6208; Interaction [HTRF] ([3]; 100 µM): 637.6497 and 793.8474 and 715.7485; Interaction [HTRF] ([3]; 200 µM): 603.5579 and 705.9392 and 654.7485
